Assays:
[1] = molecular target: T1, TRPM8 (Mus musculus, UniProt Q8R4D5); assay: TRPM8 in vitro assay, EC50 of cooling agents (published data, Table 5 / FIG. 3); assay type: cell-based; details: Behrendt et al., 4.1/44
Source text: (§1) FIG. 3. Median Effective Dose (EC50) of various cooling agents in TRPM8 in vitro assay.
(§2) A receptor assay is a standard tool and can be done quickly. For example, in a 384-plate assay, you can easily test 10 compounds and get dose-response data. For a chemical agonist, an in vitro TRPM8 assay generates an EC50 (median effective concentration). But the quantitative correlation between the EC50 on TRPM8 and cooling sensation is not always clear. That is, the language of receptor identification and potency was “roughly” predictive, but there was considerable uncertainty for each agonist. […] Table 5 summarizes results on TRPM8 EC50 (see FIG. 3). The specific references for each value are: […] The full citations are listed in the References. Leffingwell. Ref. 4 gives the FEMA numbers for each compound.
(§3) FIG. 3. Median Effective Dose (EC50) of various cooling agents in TRPM8 in vitro assay. […] The Ref. No. in Table 5 are to: 1=McKemy et al., 2002; 2=Behrendt et al., 2004; 3=Bodding et al., 2007; 4=Sherkheli et al., 2010; and 5=Johnson et al., 2018.
(§4) TRPM8 EC50 Receptor Assay. […] A receptor assay is a standard tool and can be done quickly. […] But the quantitative correlation between the EC50 on TRPM8 and cooling sensation was vague. […]

[2] = molecular target: T1, TRPM8; details: Ref. 2 (Behrendt et al., 2004); cited from earlier work
[3] = molecular target: T2, TRPM8 (Homo sapiens, UniProt Q7Z2W7); set-up: EC50; other: Johnson, 2.2/2.2; details: Ref. 5 (Johnson et al., 2018); cited from earlier work
[4] = molecular target: T3, TRPM8 (Rattus norvegicus, UniProt Q8R455); set-up: EC50; other: Sherkheli, 196/1500; details: Ref. 4 (Sherkheli et al., 2010); cited from earlier work
[5] = molecular target: T3, TRPM8; assay: TRPM8 in vitro assay, EC50 of cooling agents (published data, Table 5 / FIG. 3); assay type: cell-based; set-up: EC50; other: Sherkheli, 196/1500; details: Sherkheli, 196/1500
Source text: as §1, §2, §3, §4

[6] = test system: tongue; assay: Oral cavity screen: 15 mg of crystals on the dorsal surface of the tongue; assay type: in vivo, human
Procedure: In this discovery, sensory activity in the oral cavity was the first screen. The goal was to identify candidates producing unusual sensations. Test agents, prepared as 15 mg of white crystals, were placed on the dorsal surface of the tongue. The chemical structures and identifying characteristics are in Table 1. […] Related cooling agents were not freezing cold, except for WS-23.

[7] = test system: philtrum skin; assay: Philtrum (skin) bioassay of cooling; assay type: in vivo, human; details: 8% wt/vol on philtrum
Procedure: FIG. 5. The philtrum bioassay. Cooling agents, prepared as a or in solution are applied to the philtrum skin. Cooling intensity is rated on a scale of 0 to 3, with 0=no changes in sensation, 1=a slight feeling of coolness, cold or tingling, 2=a clearcut feeling of coolness of cold, and 3=a robust feeling of coolness of cold. The duration of cooling was recorded until two zeroes were measured 10 min apart.
TRPM8 EC50 Receptor Assay. […] A receptor assay is a standard tool and can be done quickly. For example, in a 384-plate assay, you can easily test 10 compounds and get dose-response data. For a chemical agonist, an in vitro TRPM8 assay generates an EC50 (median effective concentration). But the quantitative correlation between the EC50 on TRPM8 and cooling sensation was vague. That is, the science was “roughly” predictive, but there was considerable uncertainty for each agonist. […] Philtrum (Skin) Assay. For cooling sensations on the skin, it is necessary to test the substance on the skin. Wei proposed the use of the skin on the philtrum as a test site for cooling activity of chemicals (FIG. 5). The test substance is dissolved in a carrier, such as solvent, gel, or ointment and applied to the philtrum, a surface area of […]. The subject records sensations on the philtrum and environs as:
The subject is given a form to record observations and instructions to mark sensations on the philtrum and environs as: 0=no changes in sensation, 1=a slight feeling of coolness, cold, or tingling, 2=a clearcut feeling of coolness or cold, and 3=a robust feeling of coolness and cold.
The intervals for measurements are usually at 5, to 15 min after application, until two successive zeros are obtained. The philtrum application site is the midline groove above the upper lip border and vermilion. The gel is placed on the philtrum with a cotton-tipped applicator up to the nasolabial folds and sometimes, but not deliberately, on the lower nostrils (subnasale). Cold receptors densely innervate the philtrum skin (FIG. 5), second only to the surfaces of the eyeball and anogenitalia. The lips also have a high density of “cold spots.” Hensel et al. mapped the cold spots on the human face (cited in Dhaka et al., 2008). In animals such as the rat the mystacial pad (nose pad with vibrissae) is abundantly labeled with TRPM8-fibers. “Cold Points” linked to single-unit neuronal discharges can be measured in experimental animals. Wei has direct experience in such experiments (Poree et al., 1989).
Dip a cotton-tipped applicator (Puritan Cotton-tipped applicators, or Q-Tips) into a reservoir bottle containing the liquid or semi-liquid (gel) test substance. The composition adhering to the cotton (about 0.1 mL) is put on the skin. The philtrum site is shown in a cartoon. A subject can practice the method in front of a mirror with a high-intensity light source. Results for test on the philtrum are in Table 8 and FIG. 5. See data in FIG. 6. Cooling agents, prepared as an 8% wt./vol. gel, was tested topically on the philtrum skin assay. The duration of cooling was recorded (min on y-axis). The startling activity of FEMA 4557, cooling for ˜3 hr, was unexpected and surprising. FEMA 3784 is also known as Cool 10 or menthoxypropanediol. […]

[8] = molecular target: T2, TRPM8; assay: TRPM8 in vitro assay, EC50 of cooling agents (published data, Table 5 / FIG. 3); assay type: cell-based; set-up: EC50; other: Johnson, 2.2/2.2; details: Johnson, 2.2/2.2
Source text: as §1, §2, §3, §4

[9] = test system: oral cavity; details: 100 ppm in 5% sucrose; scale of 0 to 9 units; Johnson, 2018; cited from earlier work

T1 sequence (Q8R4D5 whole entry): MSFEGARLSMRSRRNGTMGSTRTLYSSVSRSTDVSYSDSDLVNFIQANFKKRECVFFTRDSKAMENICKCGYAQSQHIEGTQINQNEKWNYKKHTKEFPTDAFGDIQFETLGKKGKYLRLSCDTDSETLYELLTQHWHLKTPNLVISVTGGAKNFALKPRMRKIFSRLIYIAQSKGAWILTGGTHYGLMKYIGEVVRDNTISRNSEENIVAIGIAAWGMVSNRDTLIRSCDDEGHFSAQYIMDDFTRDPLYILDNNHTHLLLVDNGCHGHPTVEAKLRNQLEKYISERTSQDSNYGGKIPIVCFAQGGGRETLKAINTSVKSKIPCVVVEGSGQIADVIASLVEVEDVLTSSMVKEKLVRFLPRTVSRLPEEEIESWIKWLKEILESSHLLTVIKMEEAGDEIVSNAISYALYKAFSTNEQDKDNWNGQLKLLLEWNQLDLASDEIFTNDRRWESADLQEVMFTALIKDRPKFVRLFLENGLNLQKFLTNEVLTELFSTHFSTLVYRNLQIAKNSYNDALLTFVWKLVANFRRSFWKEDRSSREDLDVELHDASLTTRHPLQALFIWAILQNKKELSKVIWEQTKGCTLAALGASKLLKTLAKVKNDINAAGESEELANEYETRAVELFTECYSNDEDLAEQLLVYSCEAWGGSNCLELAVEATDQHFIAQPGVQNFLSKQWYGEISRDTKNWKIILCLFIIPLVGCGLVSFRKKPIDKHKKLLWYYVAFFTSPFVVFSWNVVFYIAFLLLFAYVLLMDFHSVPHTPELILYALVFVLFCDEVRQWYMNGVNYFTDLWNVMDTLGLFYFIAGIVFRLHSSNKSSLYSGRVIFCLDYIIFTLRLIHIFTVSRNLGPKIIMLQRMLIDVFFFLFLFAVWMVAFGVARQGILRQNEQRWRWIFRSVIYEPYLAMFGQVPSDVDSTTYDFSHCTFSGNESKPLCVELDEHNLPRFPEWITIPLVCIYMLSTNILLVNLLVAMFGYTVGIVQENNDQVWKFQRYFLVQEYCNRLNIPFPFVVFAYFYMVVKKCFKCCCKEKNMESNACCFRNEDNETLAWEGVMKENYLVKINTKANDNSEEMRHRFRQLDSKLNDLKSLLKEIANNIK

Compound: CNC(=O)C(C)(C(C)C)C(C)C [WS-23]
- potency relative to menthol (TRPM8 EC50 ratio) [1]: 0.09
- EC50 [2]: 44 µM
- EC50 [3]: 2.2 µM
- EC50 [4]: 1500 µM
- potency relative to menthol (TRPM8 EC50 ratio) [5]: 0.13
- Effects of 15 mg on tongue: duration [6]: ~18 min
- Effects of 15 mg on tongue: sensation [6]: painful cold in throat
- Duration of cooling [7]: 25 ± 3 min
- potency relative to menthol (TRPM8 EC50 ratio) [8]: 1
- Cooling Intensity Oral Cavity Scaled [9]: 2.25

— patent US20240269094A1, “Treatment of canine dermatitis and skin irritation” (priority 2023, published 2024)
